Read-outs that look alike come from different tables or passages of the source.
What was measured:
[1] = system: Escherichia coli (ATCC 35210); assay: Antibacterial microdilution (MIC/MBC); type: cell-based; conditions: E. coli
Summary of the method: (§1)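 Ampicillin and streptomycin are the reference antibiotics for this panel. Minimum inhibitory and minimum bactericidal concentrations are both derived from one modified microdilution format.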

[2] = system: Salmonella typhimurium (ATCC 13311); assay: Antibacterial microdilution (MIC/MBC); type: cell-based; conditions: S.t. (S. typhimurium)
Summary of the method: as §1

[3] = system: Bacillus cereus (clinical isolate); assay: Antibacterial microdilution (MIC/MBC); type: cell-based; conditions: B.c. (B. cereus)
Summary of the method: as §1

M. flavus = assay: Antibacterial microdilution (MIC/MBC); type: cell-based; conditions: Micrococcus flavus; M.f. (M. flavus)
Summary of the method: as §1

P. aeruginosa = assay: Antibacterial microdilution (MIC/MBC); type: cell-based; conditions: P.a. (P. aeruginosa)
Summary of the method: as §1

[4] = system: Staphylococcus aureus (ATCC 6538); assay: Antibacterial microdilution (MIC/MBC); type: cell-based; conditions: Staphylococcus aureus, ATCC6538, S.a. (S. aureus); for MIC: read-out: MIC
Summary of the method: as §1

[5] = system: Enterobacter cloacae (clinical isolate); assay: Antibacterial microdilution (MIC/MBC); type: cell-based; conditions: En.cl (En. cloacae)
Summary of the method: as §1

[6] = system: Listeria monocytogenes (NCTC 7973); assay: Antibacterial microdilution (MIC/MBC); type: cell-based; conditions: Listeria monocytogenes, NCTC7973, L.m. (L. monocytogenes); for MIC: read-out: MIC
Summary of the method: as §1

[7] = system: Penicillium verrucosum var. cyclopium (food isolate); assay: Antifungal bioassay (MIC/MFC); type: cell-based
in vitro = type: cell-based; conditions: human
Experimental: To evaluate cytotoxicity, compounds 1, 2, 8, and 11 were chosen to be tested in the human normal fetal lung fibroblast MRC-5 cell line within the following range of three concentrations for each substance: 1 × 10^−7 M (0.1 μM), 1 × 10^−6 Μ (1 μM), and 1 × 10^−5 M (10 μΜ). […] More specifically, under this exposure to compound 11, the cellular viability was measured to the level of 91.0%.
The normal human fetal lung fibroblast MRC-5 cell line was maintained and used in our laboratory (Dr. I.s.Vizirianakis, Laboratory of Pharmacology, School of Pharmacy, Aristotle University of Thessaloniki, Greece) (passage 15 < 40), as previously published. Cells were grown in culture under the following conditions: 37 °C, humidified atmosphere containing 5% v/v CO2, in DMEM (Dulbecco’s modified Eagle Medium) enriched with 10% FBS and 1% PS. The compounds tested were dissolved in DMSO and stored at 4 °C. […] After the incubation, the OD for each well was determined at 450 nm in a multifunction microplate reader. […] Statistical t-test and one-way analysis of variance (ANOVA) were performed via the use of the SPSS program and the significance level was determined at p < 0.05.

[8] = system: Aspergillus versicolor (ATCC 11730); assay: Antifungal bioassay (MIC/MFC); type: cell-based; conditions: ATCC11730, A.v. (A. versicolor)
Summary of the method: (§2)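 The test organisms were assayed with two replicates each.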

[9] = system: Trichoderma viride (IAM 5061); assay: Antifungal bioassay (MIC/MFC); type: cell-based; conditions: T.v. (T. viride)
Summary of the method: as §2

[10] = system: Aspergillus fumigatus (ATCC 1022); assay: Antifungal bioassay (MIC/MFC); type: cell-based; conditions: ATCC1022, A.f. (A. fumigatus)
Summary of the method: as §2

P. ochrochloron = assay: Antifungal bioassay (MIC/MFC); type: cell-based; conditions: Penicillium ochrochloron; for MFC: P.o. (P. ochrochloron); for MIC: P.o. (P. ochrochloron; text: P. ochramensis), read-out: MIC
Summary of the method: as §2

A. ochraceus = assay: Antifungal bioassay (MIC/MFC); type: cell-based; conditions: A.o. (A. ochraceus)
Summary of the method: as §2

[11] = system: Aspergillus niger (ATCC 6275); assay: Antifungal bioassay (MIC/MFC); type: cell-based; conditions: ATCC6275, A.n. (A. niger)
Summary of the method: as §2

[12] = system: Penicillium funiculosum (ATCC 36839); assay: Antifungal bioassay (MIC/MFC); type: cell-based; conditions: Talaromyces funiculosus, ATCC36839; P.f. (P. funiculosum)
Summary of the method: as §2

[13] = Escherichia coli, ATCC35210, read-out: MIC
[14] = Salmonella enterica, read-out: MIC
[15] = Pseudomonas aeruginosa, read-out: MIC
[16] = Enterobacter cloacae, read-out: MIC
[17] = Trichoderma viride, IAM5061, read-out: MIC
[18] = Aspergillus ochraceus, read-out: MIC

COC(=O)c1[nH]c2ccccc2c1/C=C1\SC(=S)N(CC(=O)O)C1=O [Compound 11, (Z)-2-(5-((2-(methoxycarbonyl)-1H-indol-3-yl)methylene)-4-oxo-2-thioxothiazolidin-3-yl)acetic acid]
15 ± 9 µg/mL: MIC [1] | MIC [2] | MBC ([3]; Bacillus cereus) | MBC [4]
292 to 294 °C: melting point
15 ± 3 µg/mL: MIC [7] | MIC [8] | MFC ([9]; Trichoderma viride, IAM5061) | MIC (P. ochrochloron) | MFC (A. ochraceus; Aspergillus ochraceus) | MIC [11] | MIC [12]
15 µg/mL: MIC [1, 13] | MIC [2, 14]
30 ± 10 µg/mL: MBC ([1]; Escherichia coli, ATCC35210) | MBC ([2]; Salmonella enterica) | MIC (M. flavus) | MBC (P. aeruginosa; Pseudomonas aeruginosa) | MBC ([5]; Enterobacter cloacae) | MIC [6] | MFC [7] | MFC [8] | MFC (P. ochrochloron) | MFC [11] | MFC [12]
91%: viability at 48 h, 1 µM (in vitro) | viability at 48 h, 10 µM (in vitro)
8 ± 0.6 µg/mL: MIC [3] | MIC [4] | MIC [9] | MIC (A. ochraceus)
60 ± 6 µg/mL: MBC (M. flavus) | MBC [6] | MIC [10]
120 ± 40 µg/mL: MFC [10]
8 µg/mL: MIC ([3]; Bacillus cereus, read-out: MIC) | MIC [9, 17] | MIC (A. ochraceus; [18])
11 ± 10 µg/mL: MIC (P. aeruginosa) | MIC [5]
11 µg/mL: MIC (P. aeruginosa; [15]) | MIC [5, 16]

COC(=O)c1[nH]c2ccc(F)cc2c1/C=C1\SC(=S)N(N2CCOCC2)C1=O [Compound 16, (Z)-methyl 5-fluoro-3-((3-morpholino-4-oxo-2-thioxothiazolidin-5-ylidene)methyl)-1H-indole-2-carboxylate]
22 ± 5 µg/mL: MIC [4]
15 ± 9 µg/mL: MIC ([3]; Bacillus cereus, read-out: MIC)
60 ± 6 µg/mL: MBC ([1]; Escherichia coli, ATCC35210) | MBC ([2]; Salmonella enterica) | MBC (M. flavus) | MBC (P. aeruginosa; Pseudomonas aeruginosa) | MBC ([5]; Enterobacter cloacae) | MBC [6]
8 µg/mL: MIC [9, 17]
30 ± 10 µg/mL: MIC [1, 13] | MBC ([3]; Bacillus cereus) | MIC (P. aeruginosa; [15]) | MBC [4] | MFC [7] | MFC [8] | MFC [10] | MFC (P. ochrochloron) | MFC (A. ochraceus; Aspergillus ochraceus) | MFC [11] | MFC [12]
45 ± 3 µg/mL: MIC [2, 14] | MIC (M. flavus) | MIC [5, 16] | MIC [6]
8 ± 0.6 µg/mL: MIC [9]
273 to 274 °C: melting point
15 ± 3 µg/mL: MIC [7] | MIC [8] | MFC ([9]; Trichoderma viride, IAM5061) | MIC [10] | MIC (P. ochrochloron) | MIC (A. ochraceus; [18]) | MIC [11] | MIC [12]
